pEC50, pIC50, pKi: −log10 of the molar value.
Assays:
[1] = target: T1, Bromodomain-containing protein 4 (Homo sapiens, UniProt O60885); experiment: Binding affinity to His-tagged BRD4 bromodomain 1 to 2 (K57 to K550 amino acids) (unknown origin) using Alexa647-labeled BET-inhibitor as fluorescent probe by bromodomain TR-FRET binding assay; type: single protein
[2] = target: T1, Bromodomain-containing protein 4; experiment: Binding affinity to BRD4 in human H1299 cells stably expressing E2 and HPV16-LCR luciferase reporter incubated for 24 hrs by Bright-Glo luciferase reporter gene assay based BRD4 engagement assay; type: cell-based
[3] = test system: MX1; experiment: Antiproliferative activity against human MX1 cells incubated for 72 hrs by cell-titer Glo assay; type: functional, cell-based; conditions: MX1, 72 h
[4] = Permeability of the compound by PAMPA method; type: ADME; conditions: read-out: permeability
[5] = Intrinsic unbound clearance in human liver microsomes; type: ADME, microsome
[6] = AUC in mouse at 10 mg/kg, po; type: ADME, organism-based; conditions: in vivo
[7] = Intrinsic unbound clearance in mouse liver microsomes; type: ADME, microsome
[8] = Oral bioavailability in mouse at 10 mg/kg; type: ADME, organism-based; conditions: in vivo
[9] = test system: Mus musculus; experiment: Unbound clearance in mouse at 10 mg/kg, po; type: ADME, organism-based; conditions: in vivo

Compound Cn1cc(-c2ccccc2NCC2CC2)c2cc[nH]c(=O)c21 has a pKi [1] of 5.82, a pIC50 [2] of 5.30 and a pEC50 [3] of 5.48.

In the case of CCC(=O)N1Cc2c[nH]c3c(=O)n(C)cc(c23)-c2cc(CS(C)(=O)=O)ccc21, the pKi [1] was 8.14, the pIC50 [2] was 8.05 and the pEC50 [3] was 8.33.

CCS(=O)(=O)Nc1ccc2c(c1)-c1c[nH]c(=O)c3c1c(cn3C)CN2c1ccc(F)cc1 gave a pKi [1] of 8.32, a pIC50 [2] of 8.37 and a pEC50 [3] of 8.25.

For Cn1cc2c3c(c[nH]c3c1=O)CN(CC1CC1)c1ccc(S(C)(=O)=O)cc1-2, the pKi [1] was 7.59, the pIC50 [2] was 7.55 and the pEC50 [3] was 7.82.

Cn1cc2c3c(c[nH]c(=O)c31)-c1cc(CS(C)(=O)=O)ccc1N(c1ccccn1)C2 gave a Papp [4] of 5.9 ×10⁻⁶ cm/s, a CL free [5] of 65 mL/min/kg and a pKi [1] of 8.54. It also gave an AUC [6] of 1.2 µM·h, a pIC50 [2] of 8.64 and a CL free [7] of 140 mL/min/kg. The pEC50 [3] was 8.26.

Cn1cc2c3c(c[nH]c(=O)c31)-c1cc(CS(C)(=O)=O)ccc1N(c1ccc(F)cc1F)C2 showed a pKi [1] of 8.57, a pIC50 [2] of 8.19 and a pEC50 [3] of 8.40.

With COC(=O)N1Cc2cn(C)c3c(=O)[nH]cc(c23)-c2cc(CS(C)(=O)=O)ccc21 the pKi [1] was 7.77, the pIC50 [2] was 7.32 and the pEC50 [3] was 7.11.

Work on Cn1cc2c3c(c[nH]c3c1=O)CN(CC1CC1)c1ccccc1-2 yielded a pKi [1] of 7.80, a pIC50 [2] of 7.64 and a pEC50 [3] of 8.14.

Work on CCS(=O)(=O)Nc1ccc2c(c1)-c1c[nH]c(=O)c3c1c(cn3C)CN2c1ccccn1 yielded a pKi [1] of 8.57, a pIC50 [2] of 7.74 and a pEC50 [3] of 8.31.

Cn1cc(-c2ccccc2NCC2CC2)c2cc[nH]c2c1=O showed a pEC50 [3] of 5.85.

Cn1cc(-c2cc(S(C)(=O)=O)ccc2NCC2CC2)c2cc[nH]c(=O)c21 showed a pKi [1] of 7.10, a pIC50 [2] of 6.82 and a pEC50 [3] of 6.85.

Work on Cn1cc(-c2cc(CS(C)(=O)=O)ccc2NCC2CC2)c2cc[nH]c2c1=O yielded a pEC50 [3] of 7.37.

For Cn1cc2c3c(c[nH]c3c1=O)CN(c1ccc(F)cc1)c1ccc(CS(C)(=O)=O)cc1-2, the Papp [4] was 6.6 ×10⁻⁶ cm/s, the CL free [5] was < 41.7 mL/min/kg and the pKi [1] was 9.06. For the same compound, the AUC [6] was 0.67 µM·h, the pIC50 [2] was 8.82 and the CL free [7] was 1400 mL/min/kg. The bioavailability [8] was 23%, the CL free [9] was 5170 mL/min/kg and the pEC50 [3] was 9.14.

Cn1cc2c3c(c[nH]c(=O)c31)-c1cc(CS(C)(=O)=O)ccc1N(C(=O)C1CC1)C2 gave a pKi [1] of 8.11, a pIC50 [2] of 7.51 and a pEC50 [3] of 7.80.

CCS(=O)(=O)Nc1cnc2c(c1)-c1c[nH]c(=O)c3c1c(cn3C)CN2c1ccc(F)cc1F showed a pKi [1] of 8.36, a pIC50 [2] of 7.49 and a pEC50 [3] of 7.74.

With CCS(=O)(=O)Nc1ccc(Oc2ccc(F)cc2F)c(-c2cn(C)c(=O)c3[nH]ccc23)c1 [MIVEBRESIB] the pIC50 [2] was 7.70.

Work on Cn1cc2c3c(c[nH]c3c1=O)CN(C(=O)C1CC1)c1ccc(CS(C)(=O)=O)cc1-2 yielded a pKi [1] of 8.15, a pIC50 [2] of 7.68 and a pEC50 [3] of 8.11.

Compound Cn1cc(-c2cc(S(C)(=O)=O)ccc2NCC2CC2)c2cc[nH]c2c1=O has a pEC50 [3] of 7.77.

Compound Cn1cc2c3c(c[nH]c3c1=O)CN(CC1CC1)c1ccc(CS(C)(=O)=O)cc1-2 has a Papp [4] of 4.3 ×10⁻⁶ cm/s, a CL free [5] of 183 mL/min/kg and a pKi [1] of 8.08. For the same compound, the AUC [6] was 0.16 µM·h, the pIC50 [2] was 8.34 and the CL free [7] was 300 mL/min/kg. The bioavailability [8] was 8.2%, the CL free [9] was 450 mL/min/kg and the pEC50 [3] was 8.70.

Cn1cc2c3c(c[nH]c(=O)c31)CN(CC1CC1)c1ccccc1-2 showed a pKi [1] of 7.37, a pIC50 [2] of 7.02 and a pEC50 [3] of 7.24.

In the case of Cn1cc2c3c(c[nH]c3c1=O)CN(C1CCC(F)(F)CC1)c1ccc(CS(C)(=O)=O)cc1-2, the Papp [4] was 7.3 ×10⁻⁶ cm/s, the CL free [5] was 67 mL/min/kg and the pKi [1] was 8.33. The AUC [6] was 0.13 µM·h, the pIC50 [2] was 8.43 and the CL free [7] was 267 mL/min/kg. The bioavailability [8] was 48%, the CL free [9] was 4830 mL/min/kg and the pEC50 [3] was 8.85.

Work on Cn1cc2c3c(c[nH]c(=O)c31)CN(CC1CC1)c1ccc(S(C)(=O)=O)cc1-2 yielded a pKi [1] of 6.74, a pIC50 [2] of 6.72 and a pEC50 [3] of 6.85.

For Cn1cc2c3c(c[nH]c(=O)c31)CN(CC1CC1)c1ccc(CS(C)(=O)=O)cc1-2, the Papp [4] was 2.5 ×10⁻⁶ cm/s, the CL free [5] was < 45 mL/min/kg and the pKi [1] was 7.92. The AUC [6] was 0.64 µM·h, the pIC50 [2] was 7.64 and the CL free [7] was < 130 mL/min/kg. It also gave a bioavailability [8] of 23%, a CL free [9] of 733 mL/min/kg and a pEC50 [3] of 7.72.

CCS(=O)(=O)Nc1cnc2c(c1)-c1cn(C)c(=O)c3[nH]cc(c13)CN2c1ccc(F)cc1F gave a pKi [1] of 8.39, a pIC50 [2] of 8.39 and a pEC50 [3] of 8.15.

With Cn1cc(-c2cc(CS(C)(=O)=O)ccc2NCC2CC2)c2cc[nH]c(=O)c21 the pKi [1] was 6.66, the pIC50 [2] was 6.70 and the pEC50 [3] was 6.85.

Source: ChEMBL document CHEMBL4190379 (Bioorg Med Chem Lett, 2018)
